Results from patent US11827628B2, “Compositions and methods for inhibition of the JAK pathway” (Rigel Pharmaceuticals, Inc., priority 2005, dated 2023).
Read-outs that look alike come from different tables or passages of the source.

Assays:
[1] = system: IL-4 stimulated expression of CD23 in human Ramos B cells (JAK-1 and JAK-3); assay: Assay for Ramos B-Cell Line Stimulated with IL-4 (CD23 upregulation, FACS); assay type: cell-based; details: read-out: IC50, Example 41
Outline: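 Log-phase Ramos cells, 1 h compound pre-incubation at 37 °C; IL-4 50 units/mL final, 20-24 h; CD23-PE stain, FACS; IC50.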

[2] = system: Primary human T-cells; assay: Primary Human T-Cell Proliferation Assay Stimulated with IL-2 (CellTiter-Glo); assay type: cell-based; details: read-out: IC50, Example 42
Outline: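 IC50 derived from CellTiter-Glo ATP signal after 72 hours of IL-2-driven proliferation at 37° C. Cells: primary human T-cells from blood, stimulated beforehand 3-4 days on anti-CD3/anti-CD28 with IL-2, then rested from IL-2 before compound exposure in duplicate; IL-2-free wells served as unstimulated control.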

[3] = Ramos B-cell line stimulated with IL-4, CD23 expression by FACS
[4] = primary human T-cell proliferation stimulated with IL-2
[5] = Homo sapiens, Ramos, Ramos B cells stimulated with IL-4, CD23 expression by FACS
[6] = Homo sapiens, T-cell, primary human T-cells stimulated with IL-2, proliferation
[7] = Ramos B cells stimulated with IL-4, CD23 expression by FACS
[8] = primary human T-cells stimulated with IL-2, proliferation

IC50 [1, 5] [nM] | Compound | IC50 [2, 6] [nM] | also measured
 | N#CCC(=O)Nc1ccc(Nc2nc(Nc3cccc(S(N)(=O)=O)c3)ncc2F)cc1Cl [Compound I-82, N2-(3-Aminosulfonylphenyl)-N4-[3-chloro-4-(N-cyanoacetyl)aminophneyl]-5-fluoro-2,4-pyrimidinediamine] |  | IC50 [1, 3]: 244 nM; IC50 [2, 4]: 1380 nM
904 | C#CCNS(=O)(=O)c1ccc(Nc2nc(Nc3cccc(S(N)(=O)=O)c3)ncc2F)cc1 [VI-75, N2-(3-Aminosulfonylphenyl)-5-fluoro-N4-[4-(prop-2-ynylaminosulfonyl)phenyl]-2,4-pyrimidinediamine] | 929 | 
295 | CC(C)c1ccc(Nc2ncc(F)c(Nc3ccc4oc(C#N)cc4c3)n2)cc1S(N)(=O)=O [IX-22, N2-(3-Aminosulfonyl-4-iso-propylphenyl)-N4-(2-cyanobenzofuran-5-yl)-5-fluoro-2,4-pyrimidinediamine] | 1590 | 
21.1 | COc1ccc(Nc2nc(Nc3ccc(C)c(S(N)(=O)=O)c3)ncc2F)cc1Cl [VI-4, N2-(3-Aminosulfonyl-4-methylphenyl)-N4-(3-chloro-4-methoxyphenyl)-5-fluoro-2,4-pyrimidinediamine] | 231 | 
549 | C#CCNS(=O)(=O)c1ccc(Nc2nc(Nc3ccc(C)c(S(N)(=O)=O)c3)ncc2F)cc1 [VI-76, N2-(3-Aminosulfonyl-4-methylphenyl)-5-fluoro-N4-[4-(prop-2-ynylaminosulfonyl)phenyl]-2,4-pyrimidinediamine] | 783 | 
 | N#CCC(=O)Nc1ccc(Nc2nc(Nc3cccc(S(N)(=O)=O)c3)ncc2F)cc1 [Compound I-78, N2-(3-Aminosulfonylphenyl)-N4-[4-(N-cyanoacetyl)aminophneyl]-5-fluoro-2,4-pyrimidinediamine] |  | IC50 [1, 3]: 635 nM; IC50 [2, 4]: 1210 nM
136 | N#Cc1cc(Nc2nc(Nc3cccc(S(N)(=O)=O)c3)ncc2F)ccc1F [VI-98, N2-(3-Aminosulfonylphenyl)-N4-(3-cyano-4-fluorophenyl)-5-fluoro-2,4-pyrimidinediamine] | 986 | 
 | N2-(3-Aminocarbonyl-5-methylphenyl)-5-fluoro-N2-[4-(1H-pyrazol-5-yl)amidophenyl)-2,4-pyrimidinediamine [II-22] |  | IC50 [1, 3]: 858 nM; IC50 [2, 4]: 7490 nM
 | Cc1cc(COc2ccc(Nc3nc(Nc4ccc(C)c(S(N)(=O)=O)c4)ncc3F)cn2)no1 [Compound V-1, N2-(3-Aminosulfonyl-4-methylphenyl)-5-fluoro-N4-[2-(5-methylisoxazol-3-yl)methyleneoxypyridin-5-yl]-2,4-pyrimidinediamine] |  | IC50 [1, 7]: 2000 nM; IC50 [2, 8]: 9770 nM
1380 | Cc1ccc(Nc2ncc(F)c(Nc3ccc(C(=O)N4CCN(C)CC4)cc3)n2)cc1S(N)(=O)=O [IX-27, N2-(3-Aminosulfonyl-4-methylphenyl)-5-fluoro-N4-[4-(4-methylpiperazin-1-ylcarbonyl)phenyl]-2,4-pyrimidinediamine] | 7630 | 
452 | NS(=O)(=O)c1cc(Nc2ncc(F)c(Nc3ccc(OC(F)(F)F)cc3)n2)ccc1Cl [VI-42, N2-(3-Aminosulfonyl-4-chlorophenyl)-5-fluoro-N4-(4-trifluoromethoxyphenyl)-2,4-pyrimidinediamine] | 6170 | 
 | N4-(4-Acetylthiomethylcarbonylphenyl)-N2-(4-aminosulfonylphenyl)-5-fluoro-2,4-pyrimidinediamine [IX-41] |  | IC50 [1, 7]: 133 nM; IC50 [2, 8]: 6260 nM
 | Cc1ccc(Nc2ncc(F)c(Nc3ccc(OCC(=O)N(C)C)c(Cl)c3)n2)cc1S(N)(=O)=O [Compound I-133, N2-(3-Aminosulfonyl-4-methylphenyl)-N4-(3-chloro-4-dimethylaminocarbonylmethoxyphenyl)-5-fluoro-2,4-pyrimidinediamine] |  | IC50 ([1]; Homo sapiens, Ramos, Ramos B-cell line stimulated with IL-4, CD23 expression by FACS): 237 nM; IC50 ([2]; Homo sapiens, T-cell, primary human T-cell proliferation stimulated with IL-2): 1350 nM
 | CN1CCN(S(=O)(=O)c2ccc(Nc3ncc(F)c(Nc4ccc(OCC#N)cc4)n3)cc2)CC1 [Compound I-18, N4-(4-Cyanomethoxy)phenyl-5-fluoro-N2-[4-(4-methylpiperazin-1-yl)sulfonyl]phenyl-2,4-pyrimidinediamine] |  | IC50 [1, 3]: 283 nM; IC50 [2, 4]: 1490 nM
